One data set deals with P-gp (Homo sapiens, UniProt P08183). The data set is described as follows: Semi-quantitative MS analysis of enriched AMEND preparations from control and P-gp knockdown T84 cells. The following applies: for Average (relative abundance, normalized to anandamide-d8 standard): anandamide-d8 standard at 1 μg/μL. An excerpt:
Generation of P-gp knockdown T84 cell lines. Purified DNA containing shRNA constructs targeting the mdr1a gene in a pLK0.1 plasmid background was obtained from the UMass RNAi core. Constructs were as follows: B4 (Clone ID: TRCN0000059683), B5 (Clone ID: TRCN0000059684), B6 (Clone ID: TRCN0000059685), B7 (Clone ID: TRCN0000059686), B8 (Clone ID: TRCN0000059687). Lentiviruses were produced by transfecting packaging cells (293T) with psPAX2, pMD.2G, and pLK0.1 plasmid constructs, using Trans-IT-LT1 lipid (Mirus Bio). After 48 hours, lentiviral supernatants were harvested, combined with 8 μg/mL polybrene (Sigma-Aldrich) and applied to T84 cells in 20% confluent monolayers. This process was repeated 24 hours later, and 48 hours following the second transfection, resistant cells were selected with 5 μg/mL puromycin.
Production of enriched AMEND. T84 cells were grown as confluent monolayers in 162 cm^2 flasks and equilibrated in Hanks Buffered Saline Solution with Mg^2+/Ca^2+ (HBSS+/+) at 37° C., 5% CO2. […] Cell supernatants collected over the course of five hours were pooled from 30 flasks, lyophilized, resuspended in water and ultrafiltered through Amicon 1,000-Da cutoff membrane (Millipore) with N2 positive pressure. Samples were captured on a C18 Bakerbond® SepPak column, washed with water and hexane, eluted with methanol, dried under N2 gas and stored at −80° C. Before use in migration experiments, samples were resuspended in HBSS+/+as needed. For screening in the DiscoveRx GPCR β-arrestin activity assay (Fremont, CA), samples were resuspended in PBS to provide a 1000× solution for screening.
LC/MS analysis of AMEND. MeOH-eluted preparations as above were dried under a stream of N2 (g), re-suspended in MeOH/buffer and separated by HPLC using a Vydac (Hesperia, CA) C18 (10 um; 300 Å) semi-preparative column ([…]). Active AMEND fractions were characterized by HPLC/Mass spectrometry (Genesis C18 (4 um, 120 Å) analytical HPLC column (4.6×150 mm) equilibrated with 5 mM triethylamine acetic acid (pH 7.2) with the effluent analyzed by using a Finnigan LCQDeca electrospray mass spectrometer.
Selected samples were analyzed for high mass accuracy determination and solubilized in 50:50 acetonitrile:H2O with 0.2% formic acid. A MAXIS-HD ultra-high resolution quadrupole time-of-flight (UHR-ESI-QTOF) mass spectrometer (Bruker Daltonik GmbH, Bremen, Germany) was used; this was coupled to a syringe driver (Hamilton, Bonaduz, Switzerland) with the sample solution being infused at a rate of 3 μL/min.
Nitrogen acted as the nebulizing gas, applied at a pressure of 2 bar. The drying gas was also nitrogen, supplied at a flow rate of 8 L/min and a temperature of 200° C. Positive ion mode was used with a corresponding capillary voltage of −4500V. Only full scan data was acquired. For each batch of samples a solution of 5 mM sodium formate clusters was also analysed. This acted as an external data file calibrant over the mass range 75-1000 m/z. The recalibrated detected mass and isotope pattern were used in the FindFormula tool to generate a list of potential theoretical formulae within 2 mDa of the detected mass. The detected isotope pattern was used to sort this list.
Data acquisition and automated processing was controlled via Compass OpenAccess 1.7 software (Bruker Daltonik GmbH, Bremen, Germany), and data processing was carried out using DataAnalysis 3.4 (Bruker Daltonik GmbH, Bremen, Germany). At each step care was taken to avoid sample degradation and oxidation by maintaining them on ice and under N2 gas as much as possible. Relative quantification by ion intensities was performed by the summation of intensities for protonated and sodiated ions to compensate for possible variation in adduct formation due to varying biological sodium levels.
With respect to Table 2, semi-quantitative MS analysis was performed to compare enriched AMEND preparations from control T84 cells to those with shRNA-mediated P-gp knockdown (B4-mdr1a and B5-mdr1a).

Data set [1] concerns HXA3-induced neutrophil migration. In words: 96-well neutrophil migration assay (modified Boyden chamber, cell-free). It counts as cell-based, human. The following applies: for AMEND inhibitory activity of purified compounds in the cell-free migration assay: FIG. 2F.
Method: Supernatants from T84 epithelial monolayers were enriched for lipids and tested for ability to inhibit HXA3-induced migration in a 96-well modified Boyden chamber assay (FIG. 2A). In order to compare across experiments with different donors, migration values within individual experiments were normalized to enriched HXA3 with vehicle treatment. […] FIG. 2C performed as in FIG. 2A, but prior to use in the migration assays enriched T84 supernatants were pretreated with FAAH or MAGL at 37 °C for 30 min. […] Commercially available endocannabinoids and related compounds were tested in the 96 well migration assay (FIG. 2F). Compounds were used at the highest concentration at which they were soluble in PBS. Data are mean+/−SEM of at least 3 independent experiments, *=p<0.05 and **=p<0.01 by one-way ANOVA.
96-well neutrophil migration.
Purified compounds used in migration assays.
The target in a further data set is MRP1 (Homo sapiens, UniProt P33527). The following applies: low affinity substrate of MRP1; cited from earlier work.
Sequence of MRP1 (P33527 whole entry): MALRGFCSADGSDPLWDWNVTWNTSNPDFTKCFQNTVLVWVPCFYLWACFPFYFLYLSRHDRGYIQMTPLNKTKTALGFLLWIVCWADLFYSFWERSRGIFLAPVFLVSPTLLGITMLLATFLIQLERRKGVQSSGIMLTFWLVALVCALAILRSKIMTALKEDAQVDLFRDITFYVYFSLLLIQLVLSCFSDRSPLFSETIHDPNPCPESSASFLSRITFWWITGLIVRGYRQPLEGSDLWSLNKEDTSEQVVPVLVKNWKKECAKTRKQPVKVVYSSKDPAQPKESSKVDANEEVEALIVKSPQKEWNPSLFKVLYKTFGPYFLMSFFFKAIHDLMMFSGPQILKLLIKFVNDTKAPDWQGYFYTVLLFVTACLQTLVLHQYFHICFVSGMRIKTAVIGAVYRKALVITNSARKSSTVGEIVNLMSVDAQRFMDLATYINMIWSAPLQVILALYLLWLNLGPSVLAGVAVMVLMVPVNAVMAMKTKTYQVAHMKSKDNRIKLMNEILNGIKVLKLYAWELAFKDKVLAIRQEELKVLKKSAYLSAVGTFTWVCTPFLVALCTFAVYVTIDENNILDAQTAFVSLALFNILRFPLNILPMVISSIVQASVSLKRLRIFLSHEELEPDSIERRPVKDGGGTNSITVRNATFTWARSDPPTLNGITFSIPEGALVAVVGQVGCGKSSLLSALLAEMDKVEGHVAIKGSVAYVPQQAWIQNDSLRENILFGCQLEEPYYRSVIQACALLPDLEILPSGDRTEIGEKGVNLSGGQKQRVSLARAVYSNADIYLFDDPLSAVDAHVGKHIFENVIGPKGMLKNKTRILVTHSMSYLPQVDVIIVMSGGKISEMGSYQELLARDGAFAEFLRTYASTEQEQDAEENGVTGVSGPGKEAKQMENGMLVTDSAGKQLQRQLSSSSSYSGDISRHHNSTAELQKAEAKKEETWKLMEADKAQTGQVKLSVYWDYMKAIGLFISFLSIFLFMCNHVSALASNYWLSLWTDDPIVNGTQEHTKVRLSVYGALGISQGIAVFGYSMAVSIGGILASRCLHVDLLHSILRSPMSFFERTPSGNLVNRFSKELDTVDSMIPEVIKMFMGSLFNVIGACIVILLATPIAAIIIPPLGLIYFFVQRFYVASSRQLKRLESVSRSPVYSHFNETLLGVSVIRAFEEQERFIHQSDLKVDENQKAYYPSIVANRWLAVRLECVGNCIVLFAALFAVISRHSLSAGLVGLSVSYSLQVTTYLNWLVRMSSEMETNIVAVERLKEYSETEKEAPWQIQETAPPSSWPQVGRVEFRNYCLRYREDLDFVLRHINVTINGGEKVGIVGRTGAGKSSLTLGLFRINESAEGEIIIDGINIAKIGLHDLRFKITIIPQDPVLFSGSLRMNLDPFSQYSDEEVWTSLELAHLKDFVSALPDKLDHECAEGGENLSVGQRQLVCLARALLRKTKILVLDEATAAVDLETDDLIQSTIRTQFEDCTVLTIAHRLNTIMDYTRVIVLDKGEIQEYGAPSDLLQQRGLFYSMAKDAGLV
The test system of data set [2] is C57BL/6 mice infected with Streptococcus pneumoniae. The data set is described as follows: S. pneumoniae lung infection of mice with MRP2 inhibition. It is filed as in vivo. As for the experimental part:
FIGS. 19A-19E. MRP2 inhibition in vivo. Using an in vitro model of neutrophil migration, we examined the results of MRP2 inhibition. MRP2 inhibition via Probenecid treatment results in a reduction of neutrophils migrating in a basolateral-to-apical direction (FIG. 19A). Following this in vitro result, C57/B16 mice were treated with either PBS or Probenecid and subsequently infected with Streptococcus pneumoniae. Mice treated with probenecid had fewer Cd11b-positive/Ly6g-positive cells (neutrophils) in the bronchoalveolar lavage (BAL) isolated from infected lungs (FIG. 19B).
S. pneumoniae infection under conditions where MRP2 function was impeded with probenecid was examined. C57BL/6 mice were infected with between 1×10^5 and 3×10^5 bacteria via the trachea, leading to lobar pneumonia and progressing to bacteremia and sepsis, after which the mice succumb to infection. Probenecid was delivered 3 hours prior to infection as a primer and again at 3-hours post-infection.

The test system of data set [3] is neutrophil migration across NIH-H292 cells infected with Streptococcus pneumoniae. The data set is described as follows: In vitro PMN transepithelial migration across H292 monolayers infected with S. pneumoniae. It counts as cell-based, human. The note with it: 100 μM pretreatment before infection with 10 MOI Streptococcus pneumoniae, vs mock-treated (FIG. 19A, FIG. 20D). As to the method:
S. pneumoniae can induce PMN transepithelial migration across model lung epithelia where a well-established in vitro model system is utilized. Briefly, H292 cells are seeded on permeable supports to form a barrier, thereby mimicking the in vivo architecture. Freshly isolated human neutrophils are then applied to the basolateral chamber of the transwell, allowing the neutrophils to transverse the epithelial layer in response to chemoattractants released by the epithelium.
Using an in vitro model of neutrophil (PMN) migration, we examined the results of MRP2 inhibition. NIH-H292 cells were incubated with 100 μM of the MRP2 inhibitor Probenecid (horizontal striped) or mock treated with PBS (black) before infection. Both control and probenecid treated cells were then washed and infected with 10 MOI Streptococcus pneumoniae. Neutrophils were placed in the basolateral chamber of the membrane construct and allowed to migrate post-infection. Neutrophils that have traveled to the apical chamber were quantified with a modified myeloperoxidase assay against a standard number of neutrophils. Shown in FIG. 20D is a representative data set that has been repeated at least 3 times. […] Uninfected cells are represented in white, labeled “Buffer”. Statics performed using unpaired T-test.

[4] abbreviates: B4-mdr1a P-gp knockdown T84 cells.
The mark [5] stands for this setting: B4-mdr1a P-gp knockdown vs control T84 cells.
[6] abbreviates: B5-mdr1a P-gp knockdown T84 cells.
Where [7] appears, read: B5-mdr1a P-gp knockdown vs control T84 cells.
The mark [8] stands for this setting: used at 0.01 mg/mL (highest concentration soluble in PBS, diluted 1:10).

Sequence of P-gp (P08183 whole entry): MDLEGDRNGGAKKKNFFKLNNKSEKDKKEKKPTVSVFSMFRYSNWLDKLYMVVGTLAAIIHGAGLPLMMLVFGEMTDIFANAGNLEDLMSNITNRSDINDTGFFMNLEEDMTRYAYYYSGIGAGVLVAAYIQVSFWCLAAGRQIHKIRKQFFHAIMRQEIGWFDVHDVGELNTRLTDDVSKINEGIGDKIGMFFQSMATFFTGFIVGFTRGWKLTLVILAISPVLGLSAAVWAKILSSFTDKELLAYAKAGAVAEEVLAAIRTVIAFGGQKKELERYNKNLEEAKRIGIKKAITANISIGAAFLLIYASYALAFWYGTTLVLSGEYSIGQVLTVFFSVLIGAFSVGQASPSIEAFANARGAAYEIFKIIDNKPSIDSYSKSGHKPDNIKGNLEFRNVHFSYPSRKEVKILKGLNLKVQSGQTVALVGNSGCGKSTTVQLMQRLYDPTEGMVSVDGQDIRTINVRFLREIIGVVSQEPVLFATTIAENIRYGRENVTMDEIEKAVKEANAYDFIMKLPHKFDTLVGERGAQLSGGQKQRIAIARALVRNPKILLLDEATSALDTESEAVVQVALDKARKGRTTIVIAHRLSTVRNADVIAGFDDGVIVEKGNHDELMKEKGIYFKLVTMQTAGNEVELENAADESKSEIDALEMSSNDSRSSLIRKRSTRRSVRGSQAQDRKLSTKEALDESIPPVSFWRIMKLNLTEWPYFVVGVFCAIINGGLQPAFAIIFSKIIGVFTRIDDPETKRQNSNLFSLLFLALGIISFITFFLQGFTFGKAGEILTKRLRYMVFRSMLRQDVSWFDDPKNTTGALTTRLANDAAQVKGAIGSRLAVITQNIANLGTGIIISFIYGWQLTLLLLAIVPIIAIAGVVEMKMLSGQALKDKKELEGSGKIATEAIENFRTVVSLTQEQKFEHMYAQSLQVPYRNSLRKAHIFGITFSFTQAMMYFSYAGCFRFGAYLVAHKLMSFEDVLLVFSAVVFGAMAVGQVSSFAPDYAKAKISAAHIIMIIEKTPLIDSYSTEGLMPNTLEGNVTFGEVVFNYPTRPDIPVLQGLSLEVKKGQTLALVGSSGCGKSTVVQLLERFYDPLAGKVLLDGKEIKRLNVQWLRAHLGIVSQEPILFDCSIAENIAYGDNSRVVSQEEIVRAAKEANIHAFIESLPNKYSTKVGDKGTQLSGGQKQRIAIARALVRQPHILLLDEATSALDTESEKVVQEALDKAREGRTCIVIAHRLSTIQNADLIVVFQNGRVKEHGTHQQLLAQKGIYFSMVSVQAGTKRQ

`CCCCC/C=C\C/C=C\C/C=C\C/C=C\CCCC(=O)OC(CO)CO` [2-Arachidonoyl Glycerol (2-AG), 2-arachidonoyl glycerol]: the “Average (relative abundance, normalized to anandamide-d8 standard)” value at P-gp (setting [4]) is 32.17; on P-gp (setting [6]) it was 29.47; on P-gp (control T84 cells) it was 35.53. For the same compound, the “% of Control” value stood at 91% on P-gp (setting [5]) and 83% at P-gp (setting [7]).
On to `CCCCC/C=C\C/C=C\C/C=C\C/C=C\CCCC(=O)NCCO` [Anandamide (AEA), Arachidonoyl ethanolamide], for which the “AMEND inhibitory activity of purified compounds in the cell-free migration assay” value in data set [1] (setting [8]) is “significant inhibitory activity”.
Regarding `N[C@@H](CCC(=O)N[C@@H](CS)C(=O)NCC(=O)O)C(=O)O` [Glutathione], at MRP1, the Km (usually the substrate concentration at which the rate is half of its maximum) is 1000 to 5000 µM.
Consider `CCCCC[C@H](O)/C=C/C=C\C=C\C=C\[C@@H](O)[C@@H](O)CCCC(=O)O` [Lipoxin A4], for which the “inhibitory activity on HXA3-induced migration after treatment with FAAH” value in data set [1] (pretreated with FAAH at 37°C for 30 min, Lipoxin used at 10 nM (FIG. 2C, FIG. 8)) was “not sensitive”. Also, the “inhibitory activity on HXA3-induced migration after treatment with MAGL” value in data set [1] (pretreated with MAGL at 37°C for 30 min, Lipoxin used at 10 nM (FIG. 2C, FIG. 8)) is “not sensitive”.
For `CCCCC/C=C\C/C=C\C/C=C\C/C=C\CCCC(=O)NCCc1ccc(O)c(O)c1` [N-Arachidonoyl Dopamine], the “Average (relative abundance, normalized to anandamide-d8 standard)” value is 1.97 at P-gp (setting [4]), 1.90 at P-gp (setting [6]) and 0.00 at P-gp (control T84 cells).
In the case of `CCCCC/C=C\C/C=C\C/C=C\C/C=C\CCCCOC(CO)CO` [Noladin ether], the “Average (relative abundance, normalized to anandamide-d8 standard)” value on P-gp (setting [4]) is on record as 154.03; on P-gp (setting [6]) it was 56.23; at P-gp (control T84 cells) it was 33.43. Further, the entries for the “% of Control” value on P-gp (setting [5]) and at P-gp (setting [7]) were 461% and 168%, respectively.
As for `CCCCCCCC/C=C\CCCCCCCC(=O)NCCO` [Oleoyl ethanolamide (OEA), Oleoyl ethanolamide], in data set [1] (setting [8]), the “AMEND inhibitory activity of purified compounds in the cell-free migration assay” value is listed as “significant inhibitory activity”.
As for `CCCN(CCC)S(=O)(=O)c1ccc(C(=O)O)cc1` [Probenecid], the reduction in bacteremia in data set [2] (48 post-infection, no longer statistically significant (FIG. 19C)) amounted to 10 fold. Moreover, in data set [2] (48 hours post-infection), the “number of bacteria in the lung” value was “the same”. In data set [2] (Cd11b+/Cd45+/Ly6g- granulocytes (FIG. 19D)), the “other granulocytes in the mouse lung” value was “no reduction”. For the same compound, the “lower CFU in the blood of mice that developed bacteremia, compared to PBS-treated mice” value in data set [2] (D1 post-infection (FIG. 19C)) is reported as “approximately 10 fold”. In data set [2] (D1 post-infection, vs PBS-treated mice (FIG. 19C)), the cases of bacteremia result is “fewer cases”. Further, the “fewer neutrophils in bronchoalveolar lavage fluid (BALF) than PBS-treated mice” value in data set [2] (Day 1 post-infection, delivered 3 hours prior to and 3 hours post-infection (FIG. 19B)) is given as 35%. The “difference in the bacterial CFU in mice that did not develop bacteremia” value in data set [2] (failed to reach statistical significance (FIG. 19E)) is on record as “approximately 2 fold”. Besides, the “number of neutrophils migrating basolateral-to-apical across infected H292 monolayers” value in data set [3] is given as “effectively reduced”; in data set [3] (listed as probenecid), “significantly fewer”.
Consider `CC/C=C\C/C=C\C/C=C\CCCCCCCC(=O)NCCO` [α-LEA, α-Linolenoyl Ethanolamide], for which, in data set [1] (used at 0.005 mg/mL (highest concentration soluble in PBS, diluted 1:10)), the “AMEND inhibitory activity of purified compounds in the cell-free migration assay” value is reported as “significant inhibitory activity”.

Values taken from patent publication US20240207212A1, “METHODS AND COMPOSITIONS FOR TREATING INFLAMMATION” (priority 2017, published 2024).
